Experimental findings from paper PMC5218480 (PLoS ONE, 2017) are described below.

This experiment has as its system MV-4-11 cells. Nature of the experiment: Gene expression microarray analysis (Affymetrix PrimeView) and GSEA. It counts as cell-based, human. On the set-up: RFU PODN (11730768_x_at) / Fold change /veh PODN (11730768_x_at) / RFU LINC00158 (11744669_a_at) / Fold change /veh LINC00158 (11744669_a_at) / RFU DUSP10 (11751237_a_at) / Fold change /veh DUSP10 (11751237_a_at) / RFU ID3 (11757404_x_at) / Fold change /veh ID3 (11757404_x_at) / RFU PLEKHG5 (11737974_s_at) / Fold change /veh PLEKHG5 (11737974_s_at) / RFU LRRC4B (11730491_at) / Fold change /veh LRRC4B (11730491_at) / RFU GIMAP4 (11747438_a_at) / Fold change /veh GIMAP4 (11747438_a_at) / RFU KRT8 (11758183_x_at) / Fold change /veh KRT8 (11758183_x_at) / RFU CNN1 (11734310_a_at) / Fold change /veh CNN1 (11734310_a_at) / RFU VPS37D (11726825_at) / Fold change /veh VPS37D (11726825_at) / RFU C10orf10 (11716522_x_at) / Fold change /veh C10orf10 (11716522_x_at) / RFU KIR2DL2 /// KIR2DL4 /// KIR2DL5A /// KIR2DL5B /// KIR2DS1 /// KIR2DS2 /// KIR2DS3 /// KIR2DS4 /// KIR3DL3 /// KIR3DL3 /// KIR3DS1 (11738374_at) / Fold change /veh KIR2DL2 /// KIR2DL4 /// KIR2DL5A /// KIR2DL5B /// KIR2DS1 /// KIR2DS2 /// KIR2DS3 /// KIR2DS4 /// KIR3DL3 /// KIR3DL3 /// KIR3DS1 (11738374_at) / RFU C1QL1 (11718748_at) / Fold change /veh C1QL1 (11718748_at) / RFU TMPRSS4 (11747572_a_at) / Fold change /veh TMPRSS4 (11747572_a_at) / RFU HAMP (11756126_x_at) / Fold change /veh HAMP (11756126_x_at) / RFU RNFT2 (11725882_a_at) / Fold change /veh RNFT2 (11725882_a_at) / RFU NR4A2 (11747474_a_at) / Fold change /veh NR4A2 (11747474_a_at) / RFU ABCC12 (11746883_a_at) / Fold change /veh ABCC12 (11746883_a_at) / RFU TMEM136 (11760407_x_at) / Fold change /veh TMEM136 (11760407_x_at) / RFU CLDN22 /// WWC2 (11732394_at) / Fold change /veh CLDN22 /// WWC2 (11732394_at) / RFU HLA-DPB1 (11760878_x_at) / Fold change /veh HLA-DPB1 (11760878_x_at) / RFU SPINT1 (11716480_a_at) / Fold change /veh SPINT1 (11716480_a_at) / RFU GAP43 (11754022_s_at) / Fold change /veh GAP43 (11754022_s_at) / RFU A4GNT (11735810_at) / Fold change /veh A4GNT (11735810_at) / RFU PRB3 (11715151_x_at) / Fold change /veh PRB3 (11715151_x_at) / RFU TUBB4B (11761932_at) / Fold change /veh TUBB4B (11761932_at) / RFU CAPN14 (11732068_a_at) / Fold change /veh CAPN14 (11732068_a_at) / RFU TMCC2 (11721928_a_at) / Fold change /veh TMCC2 (11721928_a_at) / RFU IRGQ (11745062_a_at) / Fold change /veh IRGQ (11745062_a_at) / RFU FAM174B (11720279_a_at) / Fold change /veh FAM174B (11720279_a_at) / RFU TMPRSS4 (11748680_a_at) / Fold change /veh TMPRSS4 (11748680_a_at) / RFU FAM212B (11763350_a_at) / Fold change /veh FAM212B (11763350_a_at) / RFU PLEKHG5 (11743358_a_at) / Fold change /veh PLEKHG5 (11743358_a_at) / RFU ZSCAN30 (11745921_a_at) / Fold change /veh ZSCAN30 (11745921_a_at) / RFU CMKLR1 (11741424_a_at) / Fold change /veh CMKLR1 (11741424_a_at) / RFU LOC101060620 /// MAPK8IP1 (11723275_at) / Fold change /veh LOC101060620 /// MAPK8IP1 (11723275_at) / RFU SPTSSB (11747773_x_at) / Fold change /veh SPTSSB (11747773_x_at) / RFU PRSS12 (11739890_at) / Fold change /veh PRSS12 (11739890_at) / RFU BIN1 (11741810_x_at) / Fold change /veh BIN1 (11741810_x_at) / RFU WNT11 (11732464_a_at) / Fold change /veh WNT11 (11732464_a_at) / RFU C10orf10 (11716521_a_at) / Fold change /veh C10orf10 (11716521_a_at) / RFU C5orf56 (11738089_at) / Fold change /veh C5orf56 (11738089_at) / RFU CYB561 (11721691_x_at) / Fold change /veh CYB561 (11721691_x_at) / RFU ANKRD19P (11752326_a_at) / Fold change /veh ANKRD19P (11752326_a_at) / RFU OR2T12 /// OR2T33 /// OR2T8 (11738714_s_at) / Fold change /veh OR2T12 /// OR2T33 /// OR2T8 (11738714_s_at) / RFU VCAN (11748164_a_at) / Fold change /veh VCAN (11748164_a_at) / RFU JSRP1 (11732532_at) / Fold change /veh JSRP1 (11732532_at) / RFU KRTAP10-11 (11738290_x_at) / Fold change /veh KRTAP10-11 (11738290_x_at) / RFU MYO3A (11730013_a_at) / Fold change /veh MYO3A (11730013_a_at) / RFU EBF3 (11725865_a_at) / Fold change /veh EBF3 (11725865_a_at) / RFU CAMK2N1 (11719241_x_at) / Fold change /veh CAMK2N1 (11719241_x_at) / RFU C5orf56 (11738088_a_at) / Fold change /veh C5orf56 (11738088_a_at) / RFU OLFML3 (11715873_a_at) / Fold change /veh OLFML3 (11715873_a_at) / RFU LOC100653217 /// NTM (11731650_a_at) / Fold change /veh LOC100653217 /// NTM (11731650_a_at) / RFU MAPK11 (11762145_a_at) / Fold change /veh MAPK11 (11762145_a_at) / RFU FIZ1 (11724087_x_at) / Fold change /veh FIZ1 (11724087_x_at) / RFU OASL (11726364_x_at) / Fold change /veh OASL (11726364_x_at) / RFU SOX15 (11748057_x_at) / Fold change /veh SOX15 (11748057_x_at) / RFU CD79A (11719716_a_at) / Fold change /veh CD79A (11719716_a_at) / RFU HIST1H1D (11736915_at) / Fold change /veh HIST1H1D (11736915_at) / RFU CASKIN2 (11723855_a_at) / Fold change /veh CASKIN2 (11723855_a_at) / RFU LOC730098 (11760151_x_at) / Fold change /veh LOC730098 (11760151_x_at) / RFU OR4N2 (11742367_at) / Fold change /veh OR4N2 (11742367_at) / RFU PRRT2 (11749266_a_at) / Fold change /veh PRRT2 (11749266_a_at) / RFU SNX32 (11753110_a_at) / Fold change /veh SNX32 (11753110_a_at) / RFU CDHR5 (11726645_a_at) / Fold change /veh CDHR5 (11726645_a_at) / RFU RCAN1 (11760418_a_at) / Fold change /veh RCAN1 (11760418_a_at) / RFU FAM167A (11723789_a_at) / Fold change /veh FAM167A (11723789_a_at) / RFU FAM26E (11764081_at) / Fold change /veh FAM26E (11764081_at) / RFU ISYNA1 (11749810_s_at) / Fold change /veh ISYNA1 (11749810_s_at) / RFU ACY1 (11761880_at) / Fold change /veh ACY1 (11761880_at) / RFU 11764098_at / Fold change /veh 11764098_at / RFU SAMD14 (11745864_x_at) / Fold change /veh SAMD14 (11745864_x_at) / RFU NPB (11741838_a_at) / Fold change /veh NPB (11741838_a_at) / RFU TMPRSS6 (11731388_a_at) / Fold change /veh TMPRSS6 (11731388_a_at) / RFU KRTAP10-2 (11738614_at) / Fold change /veh KRTAP10-2 (11738614_at) / RFU ARHGAP8 /// PRR5-ARHGAP8 (11727945_x_at) / Fold change /veh ARHGAP8 /// PRR5-ARHGAP8 (11727945_x_at) / RFU KRTAP5-7 /// NADSYN1 (11734609_at) / Fold change /veh KRTAP5-7 /// NADSYN1 (11734609_at) / RFU RASL12 (11751679_a_at) / Fold change /veh RASL12 (11751679_a_at) / RFU CDKN2B (11736163_a_at) / Fold change /veh CDKN2B (11736163_a_at) / RFU PRF1 (11729649_at) / Fold change /veh PRF1 (11729649_at) / RFU, ZNF638 /// ZNF638-IT1 / Fold change vs veh, ZNF638 /// ZNF638-IT1 / RFU, PANK3 / Fold change vs veh, PANK3 / RFU, SH3YL1 / Fold change vs veh, SH3YL1 / RFU, ZEB2 / Fold change vs veh, ZEB2 / RFU, NRIP1 / Fold change vs veh, NRIP1 / RFU, PTTG1IP / Fold change vs veh, PTTG1IP / RFU, CAPN2 / Fold change vs veh, CAPN2 / RFU, MED14 / Fold change vs veh, MED14 / RFU, SNORA58 / Fold change vs veh, SNORA58 / RFU, C1orf63 / Fold change vs veh, C1orf63 / RFU, LRRFIP1 / Fold change vs veh, LRRFIP1 / RFU, NDUFAF7 / Fold change vs veh, NDUFAF7 / RFU, SLC12A2 / Fold change vs veh, SLC12A2 / RFU, IBTK / Fold change vs veh, IBTK / RFU, ESF1 / Fold change vs veh, ESF1 / Fold change vs veh, TMEM50B / RFU, TAOK1 / Fold change vs veh, TAOK1 / RFU, ACBD3 / Fold change vs veh, ACBD3 / RFU, TMA16 / Fold change vs veh, TMA16 / RFU, RWDD3 / Fold change vs veh, RWDD3 / RFU, BCAT1 / Fold change vs veh, BCAT1 / RFU, EDEM3 / Fold change vs veh, EDEM3 / RFU, TMEM33 / Fold change vs veh, TMEM33 / RFU, WDR75 / Fold change vs veh, WDR75 / RFU, AHCTF1 / Fold change vs veh, AHCTF1 / RFU, TFRC / Fold change vs veh, TFRC / RFU, ZDHHC17 / Fold change vs veh, ZDHHC17 / RFU, NOM1 / Fold change vs veh, NOM1 / RFU, ARL8B / Fold change vs veh, ARL8B / RFU, ZBTB11 / Fold change vs veh, ZBTB11 / RFU, TAMM41 / Fold change vs veh, TAMM41 / RFU, KIAA1704 /// LOC100996395 / Fold change vs veh, KIAA1704 /// LOC100996395 / RFU, ING1 / Fold change vs veh, ING1 / RFU, TRMT61B / Fold change vs veh, TRMT61B / RFU, FUBP3 / Fold change vs veh, FUBP3 / RFU, TP53 / Fold change vs veh, TP53 / RFU, TNKS2 / Fold change vs veh, TNKS2 / RFU, ZFP14 / Fold change vs veh, ZFP14 / RFU, ACTR2 / Fold change vs veh, ACTR2 / RFU, PPP3R1 / Fold change vs veh, PPP3R1 / RFU, PIK3R1 / Fold change vs veh, PIK3R1 / RFU, HNRNPA1 / Fold change vs veh, HNRNPA1 / RFU, RNF170 / Fold change vs veh, RNF170 / RFU, ZNF28 / Fold change vs veh, ZNF28 / RFU, RNGTT / Fold change vs veh, RNGTT / RFU, OGT / Fold change vs veh, OGT / RFU, BRD1 / Fold change vs veh, BRD1 / RFU, MARS / Fold change vs veh, MARS / RFU, ZNF655 / Fold change vs veh, ZNF655 / RFU, FAHD1 / Fold change vs veh, FAHD1 / RFU, BDP1 / Fold change vs veh, BDP1 / RFU, LRRCC1 / Fold change vs veh, LRRCC1 / RFU, ARID1A / Fold change vs veh, ARID1A / RFU, ZNF146 / Fold change vs veh, ZNF146 / RFU, ZNF330 / Fold change vs veh, ZNF330 / RFU, GPN3 / Fold change vs veh, GPN3 / RFU, C9orf123 / Fold change vs veh, C9orf123 / RFU, N4BP2L2 / Fold change vs veh, N4BP2L2 / RFU, ARFIP1 / Fold change vs veh, ARFIP1 / RFU, FAM179B / Fold change vs veh, FAM179B / RFU, BCL10 / Fold change vs veh, BCL10 / RFU, UHRF1BP1L / Fold change vs veh, UHRF1BP1L / RFU, BET1 / Fold change vs veh, BET1 / RFU, CNOT2 / Fold change vs veh, CNOT2 / RFU, ZNF268 / Fold change vs veh, ZNF268 / Fold change vs veh, ZNF507 / RFU, DGCR2 / Fold change vs veh, DGCR2 / RFU, WDSUB1 / Fold change vs veh, WDSUB1 / Fold change vs veh, HSP90B1 /// MIR3652 / RFU, ADSS / Fold change vs veh, ADSS / RFU, GK / Fold change vs veh, GK / RFU, ZNF148 / Fold change vs veh, ZNF148 / RFU, TAF9 / Fold change vs veh, TAF9 / RFU, SLC1A5 / Fold change vs veh, SLC1A5 / RFU, SLMO2 / Fold change vs veh, SLMO2 / RFU, ABCC4 / Fold change vs veh, ABCC4 / RFU, LOC101060439 /// RAP1B / Fold change vs veh, LOC101060439 /// RAP1B / RFU, RFX7 / Fold change vs veh, RFX7 / RFU, GTPBP10 / Fold change vs veh, GTPBP10 / RFU, CNEP1R1 / Fold change vs veh, CNEP1R1 / RFU, BIVM-ERCC5 /// ERCC5 / Fold change vs veh, BIVM-ERCC5 /// ERCC5 / RFU, ILF3 / Fold change vs veh, ILF3 / RFU 11762660_at / Fold change /veh 11762660_at / RFU VCAN (11757783_s_at) / Fold change /veh VCAN (11757783_s_at) / RFU DDX43 (11728927_at) / Fold change /veh DDX43 (11728927_at) / RFU KRT8 (11758188_x_at) / Fold change /veh KRT8 (11758188_x_at) / RFU NKD1 (11759106_at) / Fold change /veh NKD1 (11759106_at) / RFU SRD5A1 (11742802_a_at) / Fold change /veh SRD5A1 (11742802_a_at) / RFU TPSAB1 /// TPSB2 (11721975_s_at) / Fold change /veh TPSAB1 /// TPSB2 (11721975_s_at) / RFU GSTM3 (11746129_a_at) / Fold change /veh GSTM3 (11746129_a_at) / RFU IL23R (11737362_x_at) / Fold change /veh IL23R (11737362_x_at) / RFU TMEM51 (11727254_a_at) / Fold change /veh TMEM51 (11727254_a_at) / RFU PIWIL2 (11732686_x_at) / Fold change /veh PIWIL2 (11732686_x_at) / RFU ORM1 (11744905_x_at) / Fold change /veh ORM1 (11744905_x_at) / RFU CCDC152 (11743942_at) / Fold change /veh CCDC152 (11743942_at) / RFU ECM1 (11717891_a_at) / Fold change /veh ECM1 (11717891_a_at) / RFU IL23R (11748794_a_at) / Fold change /veh IL23R (11748794_a_at) / RFU TNFAIP8L3 (11732012_x_at) / Fold change /veh TNFAIP8L3 (11732012_x_at) / RFU MBOAT4 (11741988_at) / Fold change /veh MBOAT4 (11741988_at) / RFU 11764193_at / Fold change /veh 11764193_at / RFU TMEM53 (11763286_at) / Fold change /veh TMEM53 (11763286_at) / RFU MAGEB2 (11727129_at) / Fold change /veh MAGEB2 (11727129_at) / RFU TMEM200A (11744735_a_at) / Fold change /veh TMEM200A (11744735_a_at) / RFU CCDC152 (11751479_a_at) / Fold change /veh CCDC152 (11751479_a_at) / RFU FAM211A (11726209_a_at) / Fold change /veh FAM211A (11726209_a_at) / RFU RGS16 (11746705_a_at) / Fold change /veh RGS16 (11746705_a_at) / RFU VCAN (11755009_s_at) / Fold change /veh VCAN (11755009_s_at) / RFU RHOB (11743442_s_at) / Fold change /veh RHOB (11743442_s_at) / RFU RGS16 (11720943_a_at) / Fold change /veh RGS16 (11720943_a_at) / RFU RGS16 (11720944_at) / Fold change /veh RGS16 (11720944_at) / RFU, VPS4B / Fold change vs veh, VPS4B / RFU, CREB1 / Fold change vs veh, CREB1 / RFU, DNAJC13 / Fold change vs veh, DNAJC13 / RFU, GNAQ / Fold change vs veh, GNAQ / RFU, CDK5R1 / Fold change vs veh, CDK5R1 / RFU, ZRANB3 / Fold change vs veh, ZRANB3 / RFU, CUL4A / Fold change vs veh, CUL4A / RFU, CCNY / Fold change vs veh, CCNY / RFU, UFL1 / Fold change vs veh, UFL1 / RFU, COG3 / Fold change vs veh, COG3 / RFU, DIAPH2 / Fold change vs veh, DIAPH2 / RFU, SKA2 / Fold change vs veh, SKA2 / RFU, AFF3 / Fold change vs veh, AFF3 / RFU, LMF1 / Fold change vs veh, LMF1 / RFU, IPO11 / Fold change vs veh, IPO11 / RFU, DFFB / Fold change vs veh, DFFB / RFU, FOXP1 / Fold change vs veh, FOXP1 / RFU, CARD8 / Fold change vs veh, CARD8 / RFU, STRN3 / Fold change vs veh, STRN3 / RFU, ADK / Fold change vs veh, ADK / RFU, RASSF2 / Fold change vs veh, RASSF2 / RFU, WIPF1 / Fold change vs veh, WIPF1 / RFU, LARP1B / Fold change vs veh, LARP1B / RFU, RASA1 / Fold change vs veh, RASA1 / RFU, RB1 / Fold change vs veh, RB1 / RFU, PPFIA1 / Fold change vs veh, PPFIA1 / RFU, MAT2A / Fold change vs veh, MAT2A / RFU, CCT5 / Fold change vs veh, CCT5 / RFU, WDR92 / Fold change vs veh, WDR92 / RFU, CUX1 / Fold change vs veh, CUX1 / RFU, TTC7A / Fold change vs veh, TTC7A / RFU, TMEM135 / Fold change vs veh, TMEM135 / RFU, DEPTOR / Fold change vs veh, DEPTOR / RFU, CPM / Fold change vs veh, CPM / RFU, DNAJB6 / Fold change vs veh, DNAJB6 / RFU, CACNA2D3 / Fold change vs veh, CACNA2D3 / RFU, DTX4 / Fold change vs veh, DTX4 / RFU, TFCP2 / Fold change vs veh, TFCP2 / RFU, GMCL1 /// GMCL1P1 / Fold change vs veh, GMCL1 /// GMCL1P1 / RFU, AEBP2 / Fold change vs veh, AEBP2 / RFU, SNHG1 /// SNORD22 /// SNORD25 /// SNORD26 /// SNORD27 /// SNORD28 /// SNORD29 /// SNORD31 / Fold change vs veh, SNHG1 /// SNORD22 /// SNORD25 /// SNORD26 /// SNORD27 /// SNORD28 /// SNORD29 /// SNORD31 / Fold change (Aza/veh), C12orf56 (ProbeSet 11735607_a_at) / Fold change (ACY-1035/veh), C12orf56 (ProbeSet 11735607_a_at) / Fold change (Aza/veh), FGFR1OP (ProbeSet 11751329_s_at) / Fold change (ACY-1035/veh), FGFR1OP (ProbeSet 11751329_s_at) / Fold change (Aza/veh), VPS36 (ProbeSet 11739960_a_at) / Fold change (ACY-1035/veh), VPS36 (ProbeSet 11739960_a_at) / RFU SYPL1 (11715823_x_at) / Fold change /veh SYPL1 (11715823_x_at) / RFU IGFBP7 (11715501_s_at) / Fold change /veh IGFBP7 (11715501_s_at) / RFU REEP3 (11722064_at) / Fold change /veh REEP3 (11722064_at) / RFU IGLL1 (11728026_x_at) / Fold change /veh IGLL1 (11728026_x_at): dose or concentration left out as unconfirmed. As to conditions: MV-4-11 cells, 48 hours.

On to `Nc1ncn([C@@H]2O[C@H](CO)[C@@H](O)[C@H]2O)c(=O)n1` [azacitidine], for which the “RFU SYPL1 (11715823_x_at)” value is given as 860.69 RFU.
